target: H1047R PIK3CA enzyme (Homo sapiens, UniProt P42336, H1047R); assay: ADP-Glo Biochemical PIK3CA Kinase Assay
Sequence (P42336 whole entry H1047R): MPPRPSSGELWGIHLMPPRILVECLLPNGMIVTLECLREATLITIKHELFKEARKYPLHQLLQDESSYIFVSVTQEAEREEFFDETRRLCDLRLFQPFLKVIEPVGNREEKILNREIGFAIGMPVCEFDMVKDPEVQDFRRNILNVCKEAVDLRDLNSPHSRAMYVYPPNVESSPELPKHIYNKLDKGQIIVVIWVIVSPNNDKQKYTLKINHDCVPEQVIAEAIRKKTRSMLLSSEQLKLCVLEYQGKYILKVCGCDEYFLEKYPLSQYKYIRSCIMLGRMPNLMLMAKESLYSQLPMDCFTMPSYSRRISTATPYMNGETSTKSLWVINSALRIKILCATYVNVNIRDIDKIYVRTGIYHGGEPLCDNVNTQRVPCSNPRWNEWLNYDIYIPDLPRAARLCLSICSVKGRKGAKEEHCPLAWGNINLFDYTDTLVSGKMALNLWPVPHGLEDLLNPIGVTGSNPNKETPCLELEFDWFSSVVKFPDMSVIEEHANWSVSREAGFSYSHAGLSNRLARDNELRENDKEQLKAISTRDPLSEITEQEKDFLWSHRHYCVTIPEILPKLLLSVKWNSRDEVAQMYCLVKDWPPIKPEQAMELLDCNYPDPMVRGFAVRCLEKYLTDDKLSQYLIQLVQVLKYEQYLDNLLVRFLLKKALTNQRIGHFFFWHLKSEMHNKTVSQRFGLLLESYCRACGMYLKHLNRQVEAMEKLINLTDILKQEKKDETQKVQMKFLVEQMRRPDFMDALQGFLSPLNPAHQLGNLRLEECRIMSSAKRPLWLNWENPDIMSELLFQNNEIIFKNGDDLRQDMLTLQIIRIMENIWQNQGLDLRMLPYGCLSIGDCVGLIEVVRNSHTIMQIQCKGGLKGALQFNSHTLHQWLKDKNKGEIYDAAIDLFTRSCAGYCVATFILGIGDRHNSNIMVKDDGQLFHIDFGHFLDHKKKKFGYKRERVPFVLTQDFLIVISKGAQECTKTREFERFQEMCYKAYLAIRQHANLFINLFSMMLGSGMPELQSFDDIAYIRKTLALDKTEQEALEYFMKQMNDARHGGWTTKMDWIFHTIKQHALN
Sequence (P27986 whole entry partner): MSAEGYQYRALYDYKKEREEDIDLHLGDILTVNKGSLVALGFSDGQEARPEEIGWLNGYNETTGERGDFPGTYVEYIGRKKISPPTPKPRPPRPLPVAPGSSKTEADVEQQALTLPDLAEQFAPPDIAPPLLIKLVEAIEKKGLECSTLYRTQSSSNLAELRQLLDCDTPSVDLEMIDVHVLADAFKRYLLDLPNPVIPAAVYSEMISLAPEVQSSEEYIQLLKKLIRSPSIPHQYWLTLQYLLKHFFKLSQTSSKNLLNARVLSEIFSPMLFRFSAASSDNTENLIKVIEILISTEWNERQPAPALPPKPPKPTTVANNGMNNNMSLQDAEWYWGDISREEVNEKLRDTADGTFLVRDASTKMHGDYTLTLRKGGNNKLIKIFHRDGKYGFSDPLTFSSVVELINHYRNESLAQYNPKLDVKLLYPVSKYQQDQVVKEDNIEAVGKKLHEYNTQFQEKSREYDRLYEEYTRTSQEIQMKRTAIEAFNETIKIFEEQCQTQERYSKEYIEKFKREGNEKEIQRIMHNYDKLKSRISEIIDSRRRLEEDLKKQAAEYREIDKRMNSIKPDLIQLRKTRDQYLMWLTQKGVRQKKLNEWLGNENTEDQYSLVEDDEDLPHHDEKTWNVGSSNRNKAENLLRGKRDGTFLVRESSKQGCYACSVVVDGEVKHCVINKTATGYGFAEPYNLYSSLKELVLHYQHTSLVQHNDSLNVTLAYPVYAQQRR

Row | Compound | IC50
1 | O=C(Nc1cc(Br)cc2c1C(c1cc(F)ccc1C(F)F)NC2=O)c1cc(F)cc(C(F)(F)F)c1 (centres unmarked) [Compound I-206] | ≤ 100 nM
2 | O=C(Nc1cc(-c2ccc3ncnn3c2)cc2c1[C@@H](c1cc(F)ccc1Cl)NC2=O)c1cc(F)cc(OC(F)(F)F)c1 (stereo in doubt) [Compound I-1117] | 1000 to 10000 nM
3 | O=C(O)Cc1ccccc1-c1cc(NC(=O)c2cc(F)cc(C(F)(F)F)c2)c2c(c1)C(=O)NC2c1cc(F)ccc1Cl (centres unmarked) [Compound I-1265] | 100 to 500 nM
4 | O=C(Nc1cc(-c2ccn3ncnc3c2)cc2c1C(c1cc(F)ccc1Cl)NC2=O)c1cc(F)cc(C(F)(F)F)c1 (centres unmarked) [Compound I-1371] | ≤ 100 nM
5 | CN1CC(c2cc(NC(=O)c3cc(F)cc(C(F)(F)F)c3)c3c(c2)C(=O)NC3c2cc(F)ccc2Cl)NCC1=O (centres unmarked) [Compound I-1277] | ≤ 100 nM
6 | O=C(Nc1cccc2c1C(N1CCCCC1)NC2=O)c1cc(F)cc(C(F)(F)F)c1 (centres unmarked) [Compound I-537] | 10000 to 100000 nM
7 | O=C1N[C@@H](c2cc(F)ccc2Cl)c2c(NC(=O)N3C[C@H](O)c4ccc(F)cc43)cccc21 (stereo in doubt) [Compound I-2172] | 500 to 1000 nM
8 | O=C1NC(c2cc(F)ccc2Cl)c2c(NC(=O)N3c4ccccc4C(O)C34CC4)cccc21 (mixture of isomers) [Compound I-2280] | 10000 to 100000 nM
9 | N#Cc1cc2nccn2cc1-c1cc(NC(=O)c2cc(F)cc(C(F)(F)F)c2)c2c(c1)C(=O)NC2c1cc(F)ccc1Cl (centres unmarked) [Compound I-1437] | ≤ 100 nM
10 | O=C(Nc1cc(OC[C@@H]2CCCN2)cc2c1C(c1cc(F)ccc1Cl)NC2=O)c1cc(F)cc(C(F)(F)F)c1 (single isomer, unassigned) [Compound I-1468] | 100 to 500 nM
11 | O=C1N[C@H](c2cc(F)ccc2Cl)c2c(NC(=O)N3C[C@@](O)(C(F)F)c4cc(F)ccc43)cccc21 (single isomer, unassigned) [Compound I-2556] | 500 to 1000 nM
12 | Cc1ccccc1C1NC(=O)c2cccc(NC(=O)c3n[nH]c4ccccc34)c21 (centres unmarked) [Compound I-24] | 10000 to 100000 nM
13 | N#Cc1cc(-c2cc(NC(=O)c3cc(F)cc(C(F)(F)F)c3)c3c(c2)C(=O)N[C@@H]3c2cc(F)ccc2Cl)cn2ncnc12 [Compound I-1880] | 500 to 1000 nM
14 | O=C1NC(c2cc(F)ccc2Cl)c2c1cc(-c1cnn(C(F)F)c1)cc2-c1nc2cc(C(F)(F)F)cc(F)c2[nH]1 (centres unmarked) [Compound I-2048] | 1000 to 10000 nM
15 | O=C(Nc1cc(N2CC3(CNC3)C2)cc2c1C(c1cc(F)ccc1Cl)NC2=O)c1cc(F)cc(C(F)(F)F)c1 (centres unmarked) [Compound I-1299] | 100 to 500 nM
16 | N#C[C@H]1C[C@H](Oc2cc(NC(=O)c3cc(F)cc(C(F)(F)F)c3)c3c(c2)C(=O)N[C@@H]3c2cc(F)ccc2Cl)C1 (stereo in doubt) [Compound I-1304] | 1000 to 10000 nM
17 | O=C1NC(c2cc(F)ccc2Cl)c2c(NC(=O)c3cc(F)cc4cc[nH]c34)cc(Br)cc21 (centres unmarked) [Compound I-711] | ≤ 100 nM
18 | O=Cc1cc(NC(=O)c2cc(F)cc(C(F)(F)F)c2)c2c(c1)C(=O)NC2c1cc(F)ccc1Cl (centres unmarked) [Compound I-333, N-(3-(2-Chloro-5-fluorophenyl)-6-formyl-1-oxoisoindolin-4-yl)-3-fluoro-5-(trifluoromethyl)benzamide] | ≤ 100 nM
19 | O=C(Nc1cc(OC2CC(O)C2)cc2c1C(c1cc(F)ccc1Cl)NC2=O)c1cc(F)cc(C(F)(F)F)c1 (centres unmarked) [Compound I-1132] | 100 to 500 nM
20 | O=C(CCC(F)F)Nc1cc(NC(=O)c2cc(F)cc(C(F)(F)F)c2)c2c(c1)C(=O)NC2c1cc(F)ccc1Cl (centres unmarked) [Compound I-360] | ≤ 100 nM
21 | O=C(Nc1cc(Br)cc2c1C(c1cc(F)ccc1Cl)NC2=O)NC1(CC(F)(F)F)CCOCC1 (centres unmarked) [Compound I-1953] | 10000 to 100000 nM
22 | Nc1cc(NC(=O)N2C[C@H](O)c3ccccc32)c2c(c1)C(=O)N[C@H]2c1cc(F)ccc1Cl (single isomer, unassigned) [Compound I-2132] | ≤ 100 nM

Row | Compound | IC50
23 | O=C(Nc1cc(C2CNC2)cc2c1C(c1cc(F)ccc1Cl)NC2=O)c1cc(F)cc(C(F)(F)F)c1 (centres unmarked) [Compound I-654] | ≤ 100 nM
24 | O=C1N[C@@H](c2cc(F)ccc2Cl)c2c(NC(=O)[C@@H]3CCC[C@H](C(F)(F)F)C3)cc(-c3ccc4ncnn4c3)cc21 [Compound I-2030] | 500 to 1000 nM
25 | O=C(Nc1cc(OC2CS(=O)(=O)C2)cc2c1C(c1cc(F)ccc1Cl)NC2=O)c1cc(F)cc(C(F)(F)F)c1 (centres unmarked) [Compound I-1149] | 1000 to 10000 nM
26 | O=C1N[C@H](c2cc(F)ccc2Cl)c2c(NC(=O)N3C[C@H](O)c4cccc(F)c43)cccc21 (single isomer, unassigned) [Compound I-2207] | 1000 to 10000 nM
27 | O=C(Nc1cc(-c2ccc3nnc(Cl)n3c2)cc2c1[C@@H](c1cc(F)ccc1Cl)NC2=O)c1cc(F)cc(C(F)(F)F)c1 [Compound I-1676] | 100 to 500 nM
28 | O=C(Nc1cc(Br)cc2c1C(c1cc(F)c(F)cc1Cl)NC2=O)c1cc(F)cc(C(F)(F)F)c1 (centres unmarked) [Compound I-678] | ≤ 100 nM
29 | O=C(Nc1cc(Br)cc2c1C(c1cc(F)ccc1Cl)NC2=O)c1cc(F)cc(Cl)c1 (centres unmarked) [Compound I-216] | ≤ 100 nM
30 | O=C1N[C@H](c2cc(F)ccc2Cl)c2c(Nc3nccc4c(C(F)(F)F)cc(F)cc34)cc(Br)cc21 [Compound I-1110] | 1000 to 10000 nM
31 | O=C1NC(c2cc(F)ccc2Cl)c2c(NC(=O)N3C[C@@H](O)[C@@H](O)C3)cc(-c3ccc4ncnn4c3)cc21 (some centres unmarked) [Compound I-1965] | 10000 to 100000 nM
32 | O=C1CCC[C@@H]([C@@H]2NC(=O)c3cccc(NC(=O)c4cc(F)cc(C(F)(F)F)c4)c32)C1 (single isomer, unassigned) [Compound I-2255] | 10000 to 100000 nM
33 | O=C(Nc1cc(-c2cnc3ncc(Cl)n3c2)cc2c1[C@H](c1cc(F)ccc1Cl)NC2=O)c1cc(F)cc(C(F)(F)F)c1 [Compound I-1985] | ≤ 100 nM
34 | O=C1NC(c2cc(F)ccc2Cl)c2c(NC(=O)c3cc(F)cc4cc[nH]c34)cccc21 (centres unmarked) [Compound I-646] | ≤ 100 nM
35 | CN1CCCC(C(=O)Nc2cc(-c3ccc4ncnn4c3)cc3c2C(c2cc(F)ccc2Cl)NC3=O)C1 (centres unmarked) [Compound I-1792] | 1000 to 10000 nM
36 | O=C(Nc1cc(-c2ccc3ncnn3c2)cc2c1C(c1cc(F)ccc1Cl)N(CO)C2=O)c1cc(F)cc(C(F)(F)F)c1 (centres unmarked) [Compound I-1342] | 100 to 500 nM
37 | CN1CCCC[C@H]1C(=O)Nc1cc(-c2ccc3ncnn3c2)cc2c1[C@H](c1cc(F)ccc1Cl)NC2=O (racemic) [Compound I-1948] | 10000 to 100000 nM
38 | O=C1NCc2c(NC(=O)c3coc4ccc(Cl)cc34)cccc21 [Compound I-402] | 10000 to 100000 nM
39 | Cn1ccc2ccc(C(=O)Nc3cc(Br)cc4c3C(c3cc(F)ccc3Cl)NC4=O)cc21 (centres unmarked) [Compound I-668] | 1000 to 10000 nM
40 | O=C(NCC(F)F)Nc1cc(NC(=O)c2cc(F)cc(C(F)(F)F)c2)c2c(c1)C(=O)NC2c1cc(F)ccc1Cl (centres unmarked) [Compound I-510] | ≤ 100 nM
41 | COc1cc(C)c(C(=O)Nc2cccc3c2C(c2ccccc2C)NC3=O)cn1 (centres unmarked) [Compound I-501] | 10000 to 100000 nM
42 | CC(=O)N1CCC[C@@H](Oc2cc(NC(=O)c3cc(F)cc(C(F)(F)F)c3)c3c(c2)C(=O)NC3c2cc(F)ccc2Cl)C1 (single isomer, unassigned) [Compound I-1431] | ≤ 100 nM
43 | O=C(Nc1cccc2c1C(c1ccccc1C1COC1)NC2=O)c1cc(F)cc(C(F)(F)F)c1 (centres unmarked) [Compound I-907] | 10000 to 100000 nM
44 | O=C(Nc1cc(Br)cc2c1[C@@H](c1cc(F)ccc1F)NC2=O)c1cc(F)cc(C(F)(F)F)c1 [Compound I-671] | 1000 to 10000 nM

— US12581252B2, “Substituted pyrrolo[3,4-b]pyridines as PI3K-α inhibitors” (Relay Therapeutics, Inc., priority 2020, dated 2026)
